Laboratory results published in publication PMC9182141, “Assay Development and Identification of the First Plasmodium falciparum 7,8-dihydro-6-hydroxymethylpterin-pyrophosphokinase Inhibitors” (Molecules, 2022).

Experiments:
[1] = biological target: T1, PfHPPK-GFP (Plasmodium falciparum, UniProt Q25704); assay: DSF-GTP (GFP-tagged protein differential scanning fluorimetry) thermal shift; type: binding
Method: In a preliminary screening experiment, buffer conditions were investigated, searching for conditions that provide the largest thermal shift in the presence of 1 mM ATP. DSF curves were recorded under a total of 17 different conditions, with variations in buffer nature and pH, salts nature and concentration, effect of reducing agent, MgSO4 and glycerol.
From there, protein binding properties of the hit compounds were assessed experimentally using the developed DSF-GTP assay. A total of 54 compounds were tested, including virtual screening hits and closely related structures. According to our protocol, each compound was mixed with PfHPPK-GFP and submitted to a temperature gradient from 30 °C to 90 °C at 1 °C/min while GFP fluorescence was recorded. The first derivative of the resulting curve was used to determine the melting temperature (Tm). For each set of experiments, a negative control containing DMSO was added, and ΔTm values were calculated for each compound vs. the DMSO control. […] Two compound families were identified as the most promising by our DSF-GTP assay: 5-phenylazo-2,4-diaminopyrimidines (series 1) and phenyltriazolyl-2-amino-4-pyrimidinone (series 2). In series 2, linkers of different lengths that separate the phenyl triazolyl and the pyrimidine moieties were included.
In a typical DSF-GTP experiment, a master mix containing buffer and PfHPPK-GFP was prepared in a microcentrifuge tube, corresponding to a final protein concentration of 20 μg/mL. Ligands of interest were dispensed in low-profile 96-well plates (Bio-Rad) to 1 mM final concentration, and the master mix was dispensed to a final volume of 50 μL per well. In these conditions, DMSO content was maintained constant at 2%. The microplate was sealed with adhesive film and mixed by shaking for 2 min at 800 rpm at RT. The microplate was then submitted to a DSF run on a CFX96 RT-PCR (Bio-Rad, Hercules, CA, USA). DSF program was designed by starting with a 3 min equilibration phase at 30 °C, followed by a temperature gradient of 1 °C/min until 90 °C, recording fluorescence every 0.5 °C. Fluorescence was recorded using the FAM channel (λex = 450–490 nm, λem = 510–530 nm). Curves were fitted using the Precision Melt Analysis software (Bio-Rad).

[2] = system: PfHPPK; design: method as in PMID 19631695; details: substrate of monofunctional PfHPPK; cited from earlier work
[3] = system: KB cell line (human epithelial carcinoma cells); assay: Cytotoxicity, sulforhodamine B assay, KB cells; type: cell-based; details: 72 h, when no IC50 could be determined, highest tested concentration noted
[4] = system: Vero cell line (African green monkey kidney cells); assay: Cytotoxicity, sulforhodamine B assay, Vero cells; type: cell-based; details: Chlorocebus sabaeus, 72 h, when no IC50 could be determined, highest tested concentration noted
[5] = biological target: T1, PfHPPK-GFP; assay: KinaseGlo enzyme inhibition assay; type: biochemical; details: dose-response inhibition, read-out: IC50 against the enzyme
[6] = system: Plasmodium falciparum V1/S (drug resistant); assay: Antimalarial activity, [3H]-hypoxanthine incorporation assay, V1/S; type: cell-based; details: Plasmodium falciparum, P. falciparum V1/S (drug resistant); when no IC50 could be determined, highest tested concentration noted
Method: (§1) Finally, the various hit compounds were tested for their antimalarial activity against P. falciparum TM4/8.2 [26] and V1/S [27] strains. Parasite cultures were treated with test compounds at different concentrations, and antimalarial activity was measured using [3H]-hypoxanthine incorporation assay, according to our previously reported protocol. […] IC50 values could not be measured for other compounds. At this stage, there is no explanation for the difference in antiparasitic activity observed between TM4/8.2 and V1/S strains, and more investigations would be needed to conclude on this effect.
(§2) Compounds were tested for their antimalarial activity against P. falciparum TM4/8.2 [26] and V1/S [27] strains according to our previously reported protocol. In brief, parasite strains were maintained continuously in human erythrocytes in RPMI1640 supplemented with 25 mM HEPES pH 7.4, 0.2% NaHCO3, 40 µg/mL gentamicin and 8% human serum at 37 °C under 3% CO2. For in vitro antimalarial assay, parasite was treated with serial dilutions of the inhibitors, and parasite survival was determined using a modified microdilution radioisotope technique.

[7] = Metabolic stability in rat liver microsomes; details: rat, liver microsomes
Method: (§3) Intrinsic clearance was also measured in both human and rat liver microsomes in order to assess sensitivity to metabolic degradation.
(§4) Metabolic stability of test compounds was determined in human and rat liver microsomes. The assay was adapted from a previously published method. Briefly, the test compounds were mixed with liver microsomes, and the metabolic reactions were initiated by the addition of NADPH. Acetonitrile containing an internal standard (labetalol) was added at 0, 5, 10, 30, and 60 min to stop the reactions. Samples were processed, and the remaining compounds in the reactions were detected using a LC-MS/MS. Distribution coefficient, solubility and polar surface area were predicted using Marvin software. Partition coefficient was predicted using ACD/Labs software.

[8] = system: Plasmodium falciparum TM4/8.2 (drug sensitive); assay: Antimalarial activity, [3H]-hypoxanthine incorporation assay, TM4/8.2; type: cell-based; details: P. falciparum TM4/8.2 (drug sensitive), when no IC50 could be determined, highest tested concentration noted
Method: as §1, §2

[9] = Metabolic stability in human liver microsomes; details: human, liver microsomes
Method: as §3, §4

[10] = biological target: T1, PfHPPK-GFP; assay: KinaseGlo enzyme inhibition assay; type: biochemical; details: 1 mM compound, 10 μM HMDP and 10 μM ATP, 20 min at RT; read-out: Inhib. at 1 mM (%)
Method: For all the compounds displaying a measurable change of Tm, PfHPPK inhibition was recorded at 10 μM HMDP and ATP and 1 mM compound using the KinaseGlo assay. These conditions were chosen to be in the reported Km range for both HMDP and ATP substrates, enabling detection of both competitive and uncompetitive inhibitors. Compounds were incubated with HMDP, ATP and HPPK-GFP for 20 min at RT, followed by addition of the KinaseGlo reagent. After 10 min equilibration, luminescence was recorded, which directly reflects the quantity of ATP left in solution at the end of the reaction. Percentages of inhibition were calculated based on a DMSO positive control and a negative control lacking HPPK-GFP. Compounds structures, ΔTm and levels of inhibition appear in Table 1 and Table 2.
PfHPPK-GFP inhibition assay was carried using the KinaseGlo Plus kit (Promega, Madison, WI, USA). In a black 96-well plate were dispensed test compounds (1 μL of 50 mM DMSO stock), master mix (100 mM Tris pH 9, 10 mM β-mercapto ethanol, 10 mM MgSO4, 0.01% w/v BSA, 10 μM HMDP and 10 μM ATP). Reaction was initiated by addition of 2 μg of enzyme, reaching a total reaction volume of 50 μL, and reaction was allowed to proceed for 20 min at RT shaking at 300 rpm. Reaction was then quenched by addition of 50 μL KinaseGlo reagent and allowed to equilibrate for 10 min at RT shaking at 300 rpm. Luminescence was recorded on a Biotek Synergy H1 plate reader (Agilent, Santa Clara, CA, USA) using an integration time of 1 s per well. Percentage of inhibition was calculated related to a positive control experiment (no enzyme added) and a negative control experiment (no inhibitor added).

T1 sequence (Q25704 entry or part of it): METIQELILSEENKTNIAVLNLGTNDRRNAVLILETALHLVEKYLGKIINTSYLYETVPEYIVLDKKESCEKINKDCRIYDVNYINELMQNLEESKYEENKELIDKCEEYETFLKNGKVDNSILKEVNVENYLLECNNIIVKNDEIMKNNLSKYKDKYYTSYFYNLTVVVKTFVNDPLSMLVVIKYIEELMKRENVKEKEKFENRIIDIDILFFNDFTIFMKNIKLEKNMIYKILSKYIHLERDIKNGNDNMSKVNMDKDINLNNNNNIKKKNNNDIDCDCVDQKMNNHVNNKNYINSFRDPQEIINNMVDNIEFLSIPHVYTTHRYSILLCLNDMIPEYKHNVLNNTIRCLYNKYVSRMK

SMILES | Tm ([1]; PfHPPK-GFP in optimal buffer in the presence of 1 mM ATP (apo form 81 °C)) [°C] | Km [2] [µM] | IC50 [3] [µM] | ΔTm at 1000 µM ([1]; read-out: ΔTm (°C)) [°C] | IC50 [4] [µM] | IC50 [5] [µM] | IC50 [6] [µM] | microsomal CLint [7] [µL/min/mg] | IC50 [8] [µM] | microsomal CLint [9] [µL/min/mg] | inhibition at 1000 µM [10] [%]
Nc1ncnc2c1ncn2[C@@H]1O[C@H](COP(=O)(O)OP(=O)(O)OP(=O)(O)O)[C@@H](O)[C@H]1O [ATP] | 80 | 13.2 |  |  |  |  |  |  |  |  | 
CCc1nc(N)[nH]c(=O)c1CCCc1cn(-c2cccc(C(=O)O)c2)nn1 [Compound 14, 2-Amino-6-ethyl-5-(3-(1-(3-(carboxy)phenyl)-1H-1,2,3-triazol-4-yl)propyl)pyrimidin-4(3H)-one] |  |  | > 50 | -1.2 ± 0.3 | > 50 | 814 ± 47 | > 50 | 7.05 | > 50 | 4.88 | 42.8 ± 5.5
